Measured values reported in patent publication US8030042B2, “Polyamino acid synthetase and gene encoding the same” (JNC Corporation, priority 2007, dated 2011).
Values after ≈ are worked out from the molar mass of the structure shown.

B1: ε-poly-L-lysine biosynthetic enzyme: membrane-bound ε-poly-L-lysine biosynthetic enzyme (NRPS) from Streptomyces albulus strain IFO14147, amino acid sequence SEQ ID NO: 2 (protein, listed as Streptomyces albulus)
chain: MSSPLLESSFEPSEPAPQQALYRTAGNPAPRTLLDVLDATAAAHPQAIALDTGSEALTYRDLCIEIERRARQLRDRGIGPGDRVGVRVPSGTAELYLSILAVLRSGAAYVPVDADDPDERAATVFREAAVCAVLGPDGPLPGPARPLGDPRSAGPQDDAWIIFTSGSTGAPKGVAVSHRSAAAFVDAEADLFCQDQPLGPGDRVLAGLSVAFDASCEEMWLAWRYGACLVPAPRALVRAGHELGPWLVERGITVVSTVPTLAALWPDEAMRRVRLLIVGGESCPAGLVDRFAGPGREMWNTYGPTETTVVACAARLLPGEPVRIGLPLKGWQLAVVDRTGQPVPFGAEGELLISGVGTARYLDPAKDAERFRPDDALGAARVYRTGDLVRAEPEGLLFVGRADDQIKLGGRRIELGEIDAALAALPGVRGAAAAVQTTPAGTQVLVGYVVPEQRTADGSSFQQDKARALLQERLPAQLVPVLAEVESLPTRTSGKVDRKALPWPLPSAPVDSATGDPATALDGTAARLAGIWEELLGVRPGPDSDFVSLGGTSLVAARMASQLRIHHPGVSVADLYRHPVLRDMAEHLDSLGGPVDEVRPVRPVPRRTGFVQLLVQTGLYGIAGLRGLVGLALADNVLGLLAPQVWAPHTAWWLIIVGWVVLYSAPMRCALGALAARALAGTIKPGAYPRGGATHLRLWTAERVVAAFGVPSLLGTPWTRLYARSLGCATGRNVALHTMPPVTGLAELGDGCSVEPEADISGWWLDGDTLHIGAVRIGAGARVAHRSMLMPGAVVGQGAELASGACLDGEIPDGASWSGSPARPAGAAERMAGAAWPAPAWQRSRRWSAAYGLTLLGLSLLALLSTAPALVGAYFLLRDSGTLATAGLRLLLAVPVFTLLTTGCSLLVTAAVVRLLGRGITPGLHPASGGVAWRAWLVTRLLDGARGSLFPLYASLGTPHWLRLLGAKVGRHAEISTVLPLPSLLHVEDGAFLADDTLVAPFELRGGWLRLGTVRIGRRAFVGNSGIVDPGHDVPDHSLVGVLSNAPADGEPGSSWLGRPAMPLPRVATQADPARTFAPPRRLVRARAAVELCRVLPLMCGLALAEGVFLTEQDAFAQGGLGLAALVGAPLLLASGLVALLVTTLAKWLLVGRFTVSEHPLWSSFVWRNELYDTFVESLAVPSMAGAFTGTPVLNWWLRTLGAKIGRGVWLESYWLPETDLITVADGVSVNRGCVLQTHLFHDRIMRLDTVRLAEGSSLGPHGIVLPGTEVGARASIAPSSLVMRGESVPAHTRWAGNPIAGERPARPVPARAEGGAAA

tested on: ε-poly-L-lysine biosynthetic enzyme; assay: ε-poly-L-lysine biosynthesis activity (L-[U-14C]lysine taken into ε-poly-L-lysine); type: biochemical, Streptomyces albulus strain IFO14147; settings: 5 mM Mg^2+, 5 mM Mn^2+; no concentration given for Ca^2+
Experimental: The measurement of the ε-poly-L-lysine biosynthesis activity was performed according to the method of Kawai et al. (Biochem Biophys Res Commun. 2003 Nov. 21; 311 (3): 635-40) with some modification. A reaction solution (40 μl), which includes: 1 mM L-lysine containing 92.5 kBq/ml L-[U-14C]lysine (Amersham Biosciences); 5 mM MgCl2; 5 mM ATP; 1 mM DTT; 20% (w/v) glycerol; 0.2% (w/v) NP-40; 100 mM TAPS-NaOH buffer solution (pH 8.5); and the enzyme, was incubated at 30° C. 10 μl of the reaction solution was spotted on a glass fiber filter paper having the diameter of 2.1 cm (Whatman), and it was immediately immersed in an ice-cold sodium solution of 5% (w/v) trichloroacetic acid-0.25% (w/v) tungstic acid. It was allowed to stand for 20 minutes and thereafter mildly shaken for 5 minutes. After the filter was shaken again in the same solution for 5 minutes, it was rinsed with ethanol and then dried. The amount of radioactivity bound to the filter was measured using a liquid scintillation counter (Aloka). The amount of enzyme by which 1 pmol/second of L-lysine is taken into ε-poly-L-lysine under the above-described reaction conditions was defined as 1 unit. Specific activity of a protein is represented by unit per 1 mg of the protein. Quantitation of protein was performed using the Bradford method. A calibration curve was made using bovine serum albumin (Wako Pure Chemical Industries, Ltd.).

Row | Molecule | Metal ion requirement: enzyme activity on addition of divalent cation
1 | [Ca+2] [Ca^2+] | activated slightly
2 | [Mg+2] [Mg^2+] | maximal activity
3 | [Mn+2] [Mn^2+] | maximal activity

same assay, conditions: purified enzyme preparation

Row | Molecule | Optimum pH of synthesis reaction
4 | B1 | 8.5

tested on: ε-poly-L-lysine biosynthetic enzyme; assay: adenylation activity of L-lysine and other amino acids by ATP-PPi exchange reaction; type: biochemical, Streptomyces albulus strain IFO14147; settings: 1 mM amino acid; "None" = was not adenylated
Experimental: The adenylation activity of L-lysine and other amino acids was measured by ATP-PPi exchange reaction. A reaction solution (40 μl), which includes: 1 mM L-lysine or another amino acid; 5 mM MgCl2; 5 mM. ATP; 1 mM DTT; 20% (w/v) glycerol; 0.2% (w/v) NP-40; 0.2 mM sodium diphosphate; 51.8 kBq/ml [32P] sodium diphosphate; 100 mM TAPS-NaOH buffer solution (pH 8.5); and the enzyme, was incubated at 30° C. 1.0 ml of a solution containing 1.2% (w/v) active carbon, 0.1 M sodium diphosphate and 0.35 M perchloric acid was added thereto to terminate the reaction. After the active carbon was washed with pure water, the amount of radioactivity bound to the active carbon was measured using a liquid scintillation counter (Aloka).

Row | Molecule | Substrate specificity: adenylated by the enzyme or not
5 | NCC(O)CCC(N)C(=O)O (racemic) [DL-5-hydroxylysine] | adenylated
6 | NCCCC[C@@H](N)C(=O)O [D-lysine] | adenylated
7 | NCC(=O)O [Gly] | None
8 | C[C@H](N)C(=O)O [L-Ala] | None
9 | N=C(N)NCCC[C@H](N)C(=O)O [L-Arg] | None
10 | NC(=O)C[C@H](N)C(=O)O [L-Asn] | None
11 | N[C@@H](CC(=O)O)C(=O)O [L-Asp] | None
12 | N[C@@H](CS)C(=O)O [L-Cys] | None
13 | NC(=O)CC[C@H](N)C(=O)O [L-Gln] | None
14 | N[C@@H](CCC(=O)O)C(=O)O [L-Glu] | None
15 | N[C@@H](Cc1c[nH]cn1)C(=O)O [L-His] | None
16 | CC[C@H](C)[C@H](N)C(=O)O [L-Ile] | None
17 | CC(C)C[C@H](N)C(=O)O [L-Leu] | None
18 | CSCC[C@H](N)C(=O)O [L-Met] | None
19 | N[C@@H](Cc1ccccc1)C(=O)O [L-Phe] | None
20 | O=C(O)[C@@H]1CCCN1 [L-Pro] | None
21 | N[C@@H](CO)C(=O)O [L-Ser] | None
22 | C[C@@H](O)[C@H](N)C(=O)O [L-Thr, L-threonine] | None
23 | N[C@@H](Cc1c[nH]c2ccccc12)C(=O)O [L-Trp] | None
24 | N[C@@H](Cc1ccc(O)cc1)C(=O)O [L-Tyr] | None
25 | CC(C)[C@H](N)C(=O)O [L-Val] | None
26 | NCCOC[C@H](N)C(=O)O [O-(2-aminoethyl)-L-serine] | adenylated
27 | NCCSC[C@H](N)C(=O)O [S-(2-aminoethyl)-L-cysteine] | adenylated

same assay, conditions: activity to L-lysine regarded as 100%; FIG. 8

Row | Molecule | Relative activity in amino acid activation (adenylation) reaction [%]
28 | NCCCC[C@H](N)C(=O)O [L-lysine] | 100

tested on: ε-poly-L-lysine biosynthetic enzyme; assay: Enzymatic production of heteropolyamino acid from lysine analog and L-lysine (ESI-LC-MS); type: biochemical, Streptomyces albulus strain IFO14147; settings: 2 mM substrate, L-lysine and analog mixed; 25° C., 4 hours; FIG. 9
Experimental: A reaction solution (200 μl) containing 2 mM substrate amino acid (L-lysine and analog were mixed in a given ratio), 5 mM MgCl2, 5 mM ATP, 1 mM DTT, 20% glycerol, 0.2% (w/v) NP-40, 100 mM TAPS-NaOH buffer solution (pH 8.5) and about 10 μg of the purified enzyme preparation was put into a 1.5 ml microtube, and it was incubated at 25° C. 4 hours later, polyamino acid produced in a manner similar to that in Example 1 was subjected to ESI-LC-MS analysis.

Row | Molecule | Analog taken into the polylysine molecule by the enzyme (heteropolyamino acid)
29 | NCC(O)CCC(N)C(=O)O (racemic) [DL-5-hydroxylysine] | taken into the polylysine molecule
30 | NCCOC[C@H](N)C(=O)O [O-(2-aminoethyl)-L-serine] | taken into the polylysine molecule
31 | NCCSC[C@H](N)C(=O)O [S-(2-aminoethyl)-L-cysteine] | taken into the polylysine molecule

tested on: Streptomyces albulus; assay: minimum growth inhibitory concentration against the bacterium in a M9 minimum medium; type: cell-based; settings: i.e. minimum concentration to inhibit aspartokinase

Row | Molecule | MIC [mM]
32 | C[C@@H](O)[C@H](N)C(=O)O [L-Thr, L-threonine] | 16 (≈ 1910 µg/mL)
33 | NCCSC[C@H](N)C(=O)O [S-(2-aminoethyl)-L-cysteine] | 8 (≈ 1310 µg/mL)

tested on: Streptomyces albulus; assay: Microbial production of heteropolyamino acid by viable bacterium (LC-MS); type: cell-based; settings: 8 mM analog, 16 mM L-threonine, L-lysine; pH 4.2, 30° C., 48 hours; FIG. 10
Experimental: A bacterium of Streptomyces albulus, which was obtained by culturing in a M3G medium (Example 1) at 30° C. for 36 hours, was washed with 100 mM citrate buffer solution (pH 4.2) twice. The washed bacterium obtained from 100 ml of culture solution was suspended in a reaction solution for bacterium consisting of 50 ml of 5% glucose, 1% ammonium sulfate, 8 mM S-(2-aminoethyl)-L-cysteine, 16 mM L-threonine (the concentration of each of the amino acids corresponds to a minimum growth inhibitory concentration against the bacterium in a M9 minimum medium, i.e., a minimum concentration to inhibit aspartokinase which is the key enzyme for L-lysine biosynthesis), and 100 mM citrate buffer solution (pH 4.2) containing a given amount of L-lysine, and it was subjected to shaking culture at 30° C. for 48 hours. After the completion of culture, polyamino acid contained in the culture supernatant collected by centrifugation was subjected to LC-MS analysis using the method of Example 1 (paragraph [0091]).

Row | Molecule | Analog taken into the polylysine molecule by viable bacterium (heteropolyamino acid)
34 | NCCSC[C@H](N)C(=O)O [S-(2-aminoethyl)-L-cysteine] | taken into the polylysine molecule

tested on: ε-poly-L-lysine biosynthetic enzyme; assay: adenylation activity of L-lysine and other amino acids by ATP-PPi exchange reaction; type: biochemical, Streptomyces albulus strain IFO14147; settings: nucleotide in place of ATP

Row | Molecule | Nucleotide specificity: activation of substrate amino acids
35 | Nc1ncnc2c1ncn2[C@@H]1O[C@H](COP(=O)(O)OP(=O)(O)OP(=O)(O)O)[C@@H](O)[C@H]1O [ATP] | ATP-specific
36 | Nc1ccn([C@@H]2O[C@H](COP(=O)(O)OP(=O)(O)OP(=O)(O)O)[C@@H](O)[C@H]2O)c(=O)n1 [CTP] | not activated
37 | Nc1nc2c(ncn2[C@@H]2O[C@H](COP(=O)(O)OP(=O)(O)OP(=O)(O)O)[C@@H](O)[C@H]2O)c(=O)[nH]1 [GTP] | not activated
38 | O=c1ccn([C@@H]2O[C@H](COP(=O)(O)OP(=O)(O)OP(=O)(O)O)[C@@H](O)[C@H]2O)c(=O)[nH]1 [UTP] | not activated
